The record followed here is publication PMC7408547, “Bivalent Inhibitor with Selectivity for Trimeric MMP-9 Amplifies Neutrophil Chemotaxis and Enables Functional Studies on MMP-9 Proteoforms” (Cells, 2020).

Assay type in all cases: biochemical
Assay [1] deals with T1, recombinant human MMP-9 monomers (Homo sapiens, UniProt P14780).
T1 construct: made in house; host or cells: Sf9 insect cells
As to the kind of experiment: Fluorogenic peptide (OmniMMP) degradation assay, recombinant MMP-9 monomers. The following applies: recombinant human MMP-9 (Sf9) mono. Here is the method:
(§1) Compounds 5 and 7 were synthesized as previously reported. Full-length human proMMP-9 was produced by recombinant expression in Sf9 insect cells and purified by gelatin-Sepharose chromatography as previously described. Stable full-length proMMP-9 monomers and trimers were separated by glycerol gradient ultracentrifugation as previously described. ProMMP-9 mixture and the separated monomers and trimers were activated by incubation with the catalytic domain of MMP-3 (cat. No. 444217, Merck Millipore, Darmstadt, Germany) as previously described. Activation of proMMP-9 was confirmed by a band shift of ±10 kDa, corresponding to the removal of the auto-inhibitory propeptide domain and by detection of gelatinolytic activity with a previously described gelatin degradation assay. MMP-9 monomers and trimers purified from human neutrophils were purchased (Cat. No. 444,231 and 444232, Sigma-Aldrich, St. Louis, MO, USA). Examples of sample purities and activations can be found in Supplementary Figure S1. Recombinant human proMMP-2 (CHO cell-derived), proMMP-3 (NS0 cell-derived), proMMP-7 (NS0 cell-derived) and proMMP-8 (NS0 cell-derived) were purchased from R & D systems (Minneapolis, MN, USA), dissolved in assay buffer (150 mM NaCl, 5 mM CaCl2, 0.01% Tween-20, 50 mM Tris, pH 7.4) to a concentration of 100 µg/mL and activated by incubation with 1 mM p-aminophenylmercuric acetate for, respectively, 1h, 6h, 2h and 1h. Activation of MMPs was confirmed by a band shift of approximately 10 kDa, corresponding to the removal of the propeptide domain. MMP-14/MT1-MMP (NS0 cell-derived) was also purchased from R & D systems (Minneapolis, MN, USA) and activated by incubation with recombinant human furin (cat. No. 1503-SE-010, R & D systems, Minneapolis, MO, USA) in activation buffer (50 mM Tris, 1 mM CaCl2, 0.5% Brij-35, pH 9) for 1.5 h and activity was tested in assay buffer (50 mM Tris, 3 mM CaCl2, 1 µM ZnCl2, pH 8.5). Active human neutrophil elastase (NE) was purchased from Abcam (Cambridge, UK) and for activity assays of NE the assay buffer was replaced by 200 mM Tris, pH 8.8. ADAM17/TACE (Sf 21 (baculovirus)-derived, R & D systems, Minneapolis, MO, USA) was diluted and evaluated in 25 mM Tris, 2.5 μM ZnCl2, 0.005% Brij-35, pH 9.0. All stocks of the compounds were evaluated for the presence of endotoxin using the EndoZyme II assay (Hyglos bioMérieux, Bernried am Starnberger See, Germany). Endotoxin levels in all concentrated stocks (2.5 mg/mL) were below the accepted limit of 0.5 EU/mL.
To determine the inhibition of gelatinolytic activity, we used a previously optimized gelatin degradation assay. […] […] […] BML-P126-0001, Enzo Life Sciences, Farmingdale, NY, USA) was used at a final concentration of 2.5 µg/mL. For ADAM17 the fluorogenic peptide Mca-PLAQAV-Dpa-RSSSR-NH2 (ES003, R & D systems, Minneapolis, MO, USA) and for neutrophil elastase the fluorogenic substrate MeOSuc-AAPV-AMC (cat. no. 324740, Merck Millipore, Darmstadt, Germany) were used. Proteolytic activity was determined by linear regression of the fluorescence curve and the percentage inhibition was calculated through comparison with the positive control (no inhibitors). When testing supernatants from human neutrophils, the assay was performed in the presence of 20 µM neutrophil elastase inhibitor (Elastase Inhibitor IV, Calbiochem, Darmstadt, Germany).

Assay [2] has as its target T2, human neutrophil-derived MMP-9 monomers (Homo sapiens, UniProt P14780).
T2 construct: purchased Sigma-Aldrich 444,231; host or cells: human neutrophils (natural protein)
The assay is described as follows: Gelatin degradation assay, neutrophil-derived MMP-9 monomers. The following applies: MMP-9 isolated from human neutrophils, mono. The method, then: as §1
To determine the inhibition of gelatinolytic activity, we used a previously optimized gelatin degradation assay. Activated MMP-9, activated MMP-2, neutrophil elastase or supernatants of stimulated neutrophils, were incubated with different concentrations of inhibitors and incubated for 30 min at 37 °C. Next, dye-quenched gelatin (DQ™-gelatin, Invitrogen, Carlsbad, CA, USA) was added at a final concentration of 2.5 µg/mL and the increase in fluorescence over time was measured with the CLARIOstar microplate reader (BMG Labtech, Ortenberg, Germany). For other MMPs, the OmniMMP substrate peptide (Mca-PLGL-Dpa-AR-NH2, cat. no. BML-P126-0001, Enzo Life Sciences, Farmingdale, NY, USA) was used at a final concentration of 2.5 µg/mL. For ADAM17 the fluorogenic peptide Mca-PLAQAV-Dpa-RSSSR-NH2 (ES003, R & D systems, Minneapolis, MO, USA) and for neutrophil elastase the fluorogenic substrate MeOSuc-AAPV-AMC (cat. no. 324740, Merck Millipore, Darmstadt, Germany) were used. Proteolytic activity was determined by linear regression of the fluorescence curve and the percentage inhibition was calculated through comparison with the positive control (no inhibitors). When testing supernatants from human neutrophils, the assay was performed in the presence of 20 µM neutrophil elastase inhibitor (Elastase Inhibitor IV, Calbiochem, Darmstadt, Germany).

Assay [3] deals with T3, MMP-8/neutrophil collagenase (Homo sapiens, UniProt P22894).
T3 construct: purchased R & D systems; host or cells: NS0 cells
T3 sequence (P22894 101-467): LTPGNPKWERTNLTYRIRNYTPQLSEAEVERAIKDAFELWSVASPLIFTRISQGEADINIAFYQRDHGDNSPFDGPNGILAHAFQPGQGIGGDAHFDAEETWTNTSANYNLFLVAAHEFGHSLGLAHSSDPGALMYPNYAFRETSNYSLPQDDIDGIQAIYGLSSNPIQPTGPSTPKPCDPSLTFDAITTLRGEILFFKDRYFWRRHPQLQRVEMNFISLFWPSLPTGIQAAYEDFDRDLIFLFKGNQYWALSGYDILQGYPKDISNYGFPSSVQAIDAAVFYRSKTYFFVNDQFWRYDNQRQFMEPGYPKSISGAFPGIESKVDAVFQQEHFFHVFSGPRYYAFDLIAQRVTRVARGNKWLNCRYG
As to the kind of experiment: MMP-8 OmniMMP peptide assay. The following applies: for IC50: OmniMMP substrate peptide. Here is the method: Compounds 5 and 7 were synthesized as previously reported. Full-length human proMMP-9 was produced by recombinant expression in Sf9 insect cells and purified by gelatin-Sepharose chromatography as previously described. Stable full-length proMMP-9 monomers and trimers were separated by glycerol gradient ultracentrifugation as previously described. ProMMP-9 mixture and the separated monomers and trimers were activated by incubation with the catalytic domain of MMP-3 (cat. No. 444217, Merck Millipore, Darmstadt, Germany) as previously described. Activation of proMMP-9 was confirmed by a band shift of ±10 kDa, corresponding to the removal of the auto-inhibitory propeptide domain and by detection of gelatinolytic activity with a previously described gelatin degradation assay. MMP-9 monomers and trimers purified from human neutrophils were purchased (Cat. No. 444,231 and 444232, Sigma-Aldrich, St. Louis, MO, USA). Examples of sample purities and activations can be found in Supplementary Figure S1. […] ADAM17/TACE (Sf 21 (baculovirus)-derived, R & D systems, Minneapolis, MO, USA) was diluted and evaluated in 25 mM Tris, 2.5 μM ZnCl2, 0.005% Brij-35, pH 9.0. All stocks of the compounds were evaluated for the presence of endotoxin using the EndoZyme II assay (Hyglos bioMérieux, Bernried am Starnberger See, Germany). […]
To determine the inhibition of gelatinolytic activity, we used a previously optimized gelatin degradation assay. […] Next, dye-quenched gelatin (DQ™-gelatin, Invitrogen, Carlsbad, CA, USA) was added at a final concentration of 2.5 µg/mL and the increase in fluorescence over time was measured with the CLARIOstar microplate reader (BMG Labtech, Ortenberg, Germany). […] Proteolytic activity was determined by linear regression of the fluorescence curve and the percentage inhibition was calculated through comparison with the positive control (no inhibitors). […]

T2 sequence (P14780 107-707 limits assumed): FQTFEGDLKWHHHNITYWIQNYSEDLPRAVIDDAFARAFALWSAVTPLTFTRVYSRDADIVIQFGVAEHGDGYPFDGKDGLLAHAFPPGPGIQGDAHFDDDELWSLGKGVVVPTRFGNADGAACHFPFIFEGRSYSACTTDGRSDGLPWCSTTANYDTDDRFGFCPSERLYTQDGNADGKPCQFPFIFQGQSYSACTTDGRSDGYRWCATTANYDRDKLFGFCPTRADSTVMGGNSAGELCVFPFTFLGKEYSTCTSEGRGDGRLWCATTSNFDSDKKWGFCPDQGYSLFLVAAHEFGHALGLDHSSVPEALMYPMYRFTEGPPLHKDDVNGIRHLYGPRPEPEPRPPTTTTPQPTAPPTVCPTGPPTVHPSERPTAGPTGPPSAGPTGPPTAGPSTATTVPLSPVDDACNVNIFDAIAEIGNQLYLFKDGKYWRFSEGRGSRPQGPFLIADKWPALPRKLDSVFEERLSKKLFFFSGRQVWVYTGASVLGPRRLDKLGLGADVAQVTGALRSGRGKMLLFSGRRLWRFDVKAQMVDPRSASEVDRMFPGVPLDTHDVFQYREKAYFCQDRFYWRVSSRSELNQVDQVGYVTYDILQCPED
T1 sequence (P14780 107-707 limits assumed): as above

With `CC(C)[C@H](C(=O)O)N(CCNC(=O)c1ccccc1)S(=O)(=O)c1ccc(-c2ccccc2)cc1` [Compound 5], in assay [1], the concentration for an effect of 25% (IC25) was found to be 232 nM, the IC50 came to 718 nM and the IC75 came to 2228 nM. In assay [2], this molecule registered an IC25 of 300 nM, a half-inhibitory concentration (IC50) of 1150 nM and an IC75 of 4431 nM. Inhibition in assay [3] was half-maximal at 331 nM (IC50).

For `CC(C)[C@H](C(=O)O)N(CCNC(=O)c1cccc(C(=O)NCCN([C@@H](C(=O)O)C(C)C)S(=O)(=O)c2ccc(-c3ccccc3)cc2)c1)S(=O)(=O)c1ccc(-c2ccccc2)cc1` [Compound 7], the IC25 in assay [1] is 10.5 nM; in assay [2], 10 nM. Moreover, the IC50 in assay [1] was found to be 56 nM; in assay [2], 43 nM; in assay [3] it was 14.5 nM. Moreover, the results for the IC75 in assay [1] and in assay [2] were 296 nM and 181 nM, respectively. For the same molecule, in assay [3] (peptide substrate), the “fold less inhibition of MMP-8 than of trimeric MMP-9” value is reported as “more than 100 fold”.

By IC25 is commonly meant the point of the concentration-response curve where the effect stands at 25%. By IC50 is commonly meant the concentration at which inhibition is half-maximal. For orientation: IC75 means the concentration at which the effect reaches the 75% level.
